Entries after “also recorded” stand apart in the source; their conditions may differ. Read-outs that look alike come from different tables or passages of the source.
Experiments:
Src kinase domain [1] = target: T1, Src kinase domain (Gallus gallus, UniProt P00523); test: Isothermal titration calorimetry, nucleotide binding to Src kinase domain; set-up: species or system chicken; conditions: for Kd: isothermal titration calorimetry, 25 °C, 20 mM Tris (pH 8.0), 250 mM NaCl, 10 mM MgCl2; for fold reduction of nucleotide Kd by phosphorylated peptide (pRs1): presence of pRs1
T1 construct: chicken c-Src (residues 251–533); made in house
Method: (§1) Thermodynamic binding parameters for the binding of nucleotides to the Src kinase domain were obtained through isothermal titration calorimetry as published. All experiments were run in a VP-ITC instrument (Microcal) at 25 °C. Proteins were exchanged into 20 mM Tris (pH 8.0), 250 mM NaCl, 10 mM MgCl2 on PD-10 buffer exchange columns (GE Life-science) and diluted to 50–100 μM. Nucleotide stocks (Sigma) were made in buffer to final concentrations between 1 and 3 mM. The heat of binding was measured over the injection of 295 μl of drug in 10-μl steps spaced 300 s apart. Data were fit to a one binding site model using the Origin software package (Microcal). Error bars represent the s.e. of the mean of three independent runs. Representative enthalpograms are shown in Supplementary Fig. 7.
Supplementary Figure 7. Isothermal Titration Calorimetry of Src Binding to AMP-PNP and
ADP (A) Sample titration curve for AMP-PNP binding to the Src kinase domain.(B) Sample
titration curve of ADP binding to the Src kinase domain. All experiments were run in a VP-ITC
instrument (Micro-cal) at 25 °C. Proteins were exchanged into 20 mM Tris (pH 8.0), 250 mM
NaCl, 10 mM MgCl2 on PD-10 buffer exchange columns (GE Life-science), and diluted to 50–
(§2) (1 picture or pasted object on this page, not shown here)

Src kinase domain [2] = target: T1, Src kinase domain; test: Fluorescence anisotropy binding assay, substrate peptide to Src kinase domain (wild type); set-up: species or system chicken; conditions: for binding cooperativity of substrates and products (summary): ATP + substrate peptide, ADP + pRS1, Src kinase; for change of Kd of substrate peptide by AMP-PNP: increasing AMP-PNP concentration; for cooperativity of peptide and AMP-PNP binding: Kd at various concentrations of AMP-PNP, 1 μM labelled peptide
Method: After a 1-min equilibration, the increase in the fluorescence anisotropy of the fluorescently labelled ligand was recorded using a Fluoromax 4 (Horiba) and fitted against a quadratic binding equation in Kaleidagraph (Synergy Software) to yield the Kd. Error bars represent the s.e. of the mean of the independent runs.

kinase = conditions: high Mg2+ concentration; cited from earlier work
Source text: Mg^2+ ions accompany ATP and ADP binding in protein kinases, mediating interactions between phosphate groups and conserved Asp and Asn residues (Asp404 and Asn391 in Src). On the other hand, in some kinase-ADP co-crystal structures, Mg^2+ ions are missing. In such cases, the Asp residue of the DFG motif (Asp404 in Src) is almost certainly protonated to prevent negative charge repulsion from the ADP phosphate group only 3.2 Å away (for example, PDB entry 1JBP (ref. [16])).

Hck kinase domain = target: T2, Hck kinase domain (Homo sapiens, UniProt P08631); test: Kinase activity assay, Hck kinase domain; format: biochemical; conditions: increasing substrate-peptide (RS1) concentration; Fig. 3b
T2 construct: human Hck (residues 166–445); made in house
T2 sequence (P08631 247-526): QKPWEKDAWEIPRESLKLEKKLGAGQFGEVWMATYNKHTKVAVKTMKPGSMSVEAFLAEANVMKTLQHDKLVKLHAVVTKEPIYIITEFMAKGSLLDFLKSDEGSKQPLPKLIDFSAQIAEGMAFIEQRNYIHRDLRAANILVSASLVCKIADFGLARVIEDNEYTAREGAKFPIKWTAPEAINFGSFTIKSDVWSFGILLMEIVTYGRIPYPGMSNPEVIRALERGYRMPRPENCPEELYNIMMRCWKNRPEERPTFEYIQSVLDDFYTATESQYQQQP
Method: (§3) Mutations were introduced into the chicken c-Src kinase domain by site-directed mutagenesis and verified by DNA sequencing.
(§4) For the continuous spectrophotometric assay[64], 12.5–800 μM ATP Src-optimal substrate peptide ([sequence])[34] was combined with 12.5–800 μM ATP. Concentrations of Src kinase domain used for these assays were 25 nM. The initial velocities were plotted and fit to the Michaelis–Menten equation in Kaleidagraph (Synergy Software) to determine Km.

Src W260A = test: Kinase activity assay, Src W260A; format: biochemical, chicken; conditions: W260A versus wild type
Method: as §3, §4

Src D404N = test: Nucleotide binding to Src D404N; set-up: species or system chicken; conditions: asparagine incapable of chelating Mg2+; Supplementary Fig. 10
Method: as §1
Supplementary Figure 10. Mutations to the allosteric network produce biochemical phenotypes. (A) Location of residues involved in the allosteric network (colored beads). (B) Representative conformations of Src wt and D404N. As shown, Asn404 mimics protonated Asp404 by forming hydrogen bonds with Asp386, and affects the conformation of Arg388, Trp428, and other residues involved in the substrate binding. (C) The effects of D404N mutation to three key residue-residue interaction of the putative allosteric network. (D) Dissociation […]
substrate binding. […]

Src T338I = conditions: T338I versus wild type
Src kinase domain [3] = target: T1, Src kinase domain; test: Kinase activity assay (continuous spectrophotometric), Src kinase domain; format: biochemical, chicken; conditions: for Km: 25 nM Src kinase domain, mean ± s.e.m., triplicate
Method: as §3, §4

Src 3-domain construct = test: Cooperativity in Src three-domain construct (KM and KD); format: binding; conditions: Supplementary Fig. 6
Source text: Domain Kinase. (A) The effect of ATP concentration on substrate KM for Src kinase domain and 3-domain construct. (B) The effect of ATP concentration on substrate KM for WT and T338I mutant Src 3-domain construct (C) The effect of peptide concentration on ATP KM for Src kinase domain and 3-domain construct. (D) The effect of substrate concentration on ATP KM for WT and T338I mutant Src 3-domain construct. (E) Dissociation constants Src kinase domain and 3-domain constructs at increasing AMP-PNP concentration. (F) Dissociation constants for WT and T338I mutant Src 3-domain construct. KM values were determined in a kinase activity assay. KD values for the substrate peptides were determined using fluorescence anisotropy at 1 µM labeled peptide. All experiments were performed in triplicate, and data represent mean values ± s.e.m.
as §2

Abl kinase domain = target: T3, Abl kinase domain (Homo sapiens, UniProt P00519); test: Kinase activity assay, Abl kinase domain; format: biochemical; conditions: increasing substrate-peptide (RS1) concentration; Fig. 3b
T3 construct: human c-Abl (residues 229–512); made in house
T3 sequence (P00519 229-512): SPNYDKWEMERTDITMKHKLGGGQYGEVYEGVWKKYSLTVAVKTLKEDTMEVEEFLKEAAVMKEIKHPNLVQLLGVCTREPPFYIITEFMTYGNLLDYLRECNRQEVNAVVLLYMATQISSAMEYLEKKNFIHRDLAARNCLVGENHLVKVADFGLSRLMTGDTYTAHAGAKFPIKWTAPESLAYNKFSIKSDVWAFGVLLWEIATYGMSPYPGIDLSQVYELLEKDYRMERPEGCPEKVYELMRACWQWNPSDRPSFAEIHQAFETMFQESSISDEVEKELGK
Method: as §3, §4

[4] = target: T338I mutant Src 3-domain construct (Gallus gallus, UniProt P00523, T338I); test: Km of ATP and substrate peptide, T338I mutant Src 3-domain construct; format: biochemical; conditions: higher Km for ATP, lower Km for substrate peptide
Ser/Thr kinase PKA = conditions: cited from earlier work
Source text: The putative allosteric network discussed above may manifest itself in the form of cooperativity between ATP and substrate binding. […] Higher concentrations of AMP-PNP, a non-hydrolysable ATP ana ...

[5] = 100 mM Tris, pH 8.0, 10 mM MgCl2, 25 °C

With Nc1ncnc2c1ncn2[C@@H]1O[C@H](COP(=O)(O)OP(=O)(O)O)[C@@H](O)[C@H]1O [ADP] the Kd (Src kinase domain [1]) was 45 to 100 µM, the “fold reduction of nucleotide Kd by phosphorylated peptide (pRs1)” value (Src kinase domain [1]) was “twofold” and the “binding cooperativity of substrates and products (summary)” value (Src kinase domain [2]) was “positive cooperativity”. For the same molecule, the “ADP release in kinase catalytic cycle” value (kinase) was “slower at high Mg^2+ concentration”.
For Nc1ncnc2c1ncn2[C@@H]1O[C@H](COP(=O)(O)OP(=O)(O)NP(=O)(O)O)[C@@H](O)[C@H]1O [AMP-PNP], the Kd (Src kinase domain [1]) was 45 to 100 µM and the “fold reduction of nucleotide Kd by phosphorylated peptide (pRs1)” value (Src kinase domain [1]) was “three”.
For Nc1ncnc2c1ncn2[C@@H]1O[C@H](COP(=O)(O)OP(=O)(O)OP(=O)(O)O)[C@@H](O)[C@H]1O [ATP], the “ATP Km versus substrate-peptide concentration, Hck” value (Hck kinase domain) was “increases with increasing substrate-peptide concentration”, the “Km of W260A for ATP relative to wild type” value (Src W260A) was “two- to fivefold lower” and the “ATP binding to Src D404N” value (Src D404N) was “does not bind ATP favourably”. The “Km of T338I for ATP relative to wild type” value (Src T338I) was “twofold higher”, the Km (Src kinase domain [3]; 50 μM substrate peptide, read-out: Km for ATP at 50 μM substrate peptide) was 54 ± 22 µM and the Km (Src kinase domain [3]; 800 μM substrate peptide, read-out: Km for ATP at 800 μM substrate peptide) was 202 ± 21 µM. The “ATP Km versus substrate-peptide concentration, Src” value (Src kinase domain [3]; increasing substrate-peptide (RS1) concentration, Fig. 3b) was “increases with increasing substrate-peptide concentration”, the “binding cooperativity of substrates and products (summary)” value (Src kinase domain [2]) was “negative cooperativity” and the “Mg2+ dependence of binding and cooperativity” value (Src kinase domain [2]; presence vs absence of Mg2+, ionic strength adjusted to 40 mM with NaCl, Supplementary Fig. 9) was “disrupts ATP binding; also recorded: requires the presence of Mg^2+”. For the same molecule, the “cooperativity of ATP and substrate binding, three-domain construct” value (Src 3-domain construct) was “negative cooperativity is present”, the “ATP Km versus substrate-peptide concentration, Abl” value (Abl kinase domain) was “increases with increasing substrate-peptide concentration” and the “Km of T338I three-domain Src relative to wild type” value [4] was “This relationship holds for three-domain Src”. For the same molecule, the “cooperativity between ATP and substrate binding, PKA” value (Ser/Thr kinase PKA) was “positive cooperativity”.
Work on CC[C@H](C)[C@H](NC(=O)[C@H](CCC(=O)O)NC(=O)[C@H](CCC(=O)O)NC(=O)[C@H](CCC(=O)O)NC(=O)[C@H](C)N)C(=O)N[C@@H](Cc1ccc(O)cc1)C(=O)NCC(=O)N[C@@H](CCC(=O)O)C(=O)N[C@@H](Cc1ccccc1)C(=O)N[C@@H](C)C(=O)N[C@@H](CCCCN)C(=O)N[C@@H](CCCCN)C(=O)N[C@@H](CCCCN)C(=O)O [Rs1] yielded a Kd (Src kinase domain [2]) of 37 ± 7 µM, a Kd (Src kinase domain [2]; 100 μM ADP, 1 μM fluorescein-labelled peptide, 100 mM Tris, pH 8.0, 10 mM MgCl2, 25 °C, mean ± s.e.m., triplicate, read-out: Kd of substrate peptide at 100 μM ADP) of 17 ± 4 µM and a Kd (Src kinase domain [2]; 1,000 μM ADP, 1 μM fluorescein-labelled peptide, 100 mM Tris, pH 8.0, 10 mM MgCl2, 25 °C, mean ± s.e.m., triplicate, read-out: Kd of substrate peptide at 1,000 μM ADP) of 16 ± 2 µM. The “change of Kd of substrate peptide by AMP-PNP” value (Src kinase domain [2]; 1 μM fluorescein-labelled peptide, 100 mM Tris, pH 8.0, 10 mM MgCl2, 25 °C, listed as optimal substrate peptide for Src) was “increase the Kd up to fivefold” and the “change of Kd of substrate peptide by AMP-PNP” value (Src kinase domain [2]; 1 μM fluorescein-labelled peptide, 100 mM Tris, pH 8.0, 10 mM MgCl2, 25 °C, listed as substrate peptide) was “increases the Kd of substrate peptide fivefold”.
With AEEMIYGEFAKKK [Rs2] the “cooperativity of peptide and AMP-PNP binding” value (Src kinase domain [2]; [5]) was “negative cooperativity independent of their overall affinity”.
With “GIYWHHY [Rs3, short substrate peptide (GIYWHHY)]” the “cooperativity of peptide and AMP-PNP binding” value (Src kinase domain [2]; [5]) was “negative cooperativity independent of their overall affinity”.
